The results in this text go back to US11267800B2, “Cyclohexyl acid triazole azines as LPA antagonists” (BRISTOL-MYERS SQUIBB COMPANY, priority 2017, dated 2022).

For the assay, the target named is T1, human LPA1 (Homo sapiens, UniProt Q92633).
T1 construct: expressed in transfected cells; host or cells: Chinese hamster ovary (CHO) cells
T1 sequence (Q92633 whole entry): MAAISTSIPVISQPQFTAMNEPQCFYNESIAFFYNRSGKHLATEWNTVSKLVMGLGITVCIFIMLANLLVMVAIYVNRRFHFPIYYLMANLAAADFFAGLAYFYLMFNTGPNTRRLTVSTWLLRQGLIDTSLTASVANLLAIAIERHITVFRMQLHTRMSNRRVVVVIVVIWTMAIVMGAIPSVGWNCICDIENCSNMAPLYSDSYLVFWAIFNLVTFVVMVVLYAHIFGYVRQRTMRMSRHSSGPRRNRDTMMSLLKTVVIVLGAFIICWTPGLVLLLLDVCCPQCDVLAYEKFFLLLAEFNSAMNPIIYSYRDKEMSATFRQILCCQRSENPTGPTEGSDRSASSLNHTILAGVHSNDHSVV
The experiment in a line: LPA1 functional antagonist assay (calcium flux). It is filed as cell-based. Particulars: CHO cells overexpressing human LPA1; inhibition of calcium flux induced by 10 nM LPA; read-out: hLPA1 IC50. The method, then: The effectiveness of compounds of the present invention as LPA1 inhibitors can be determined in an LPA1 functional antagonist assay as follows:
Chinese hamster ovary cells overexpressing human LPA1 were plated overnight (15,000 cells/well) in poly-D-lysine coated 384-well microplates (Greiner bio-one, Cat #781946) in DMEM/F12 medium (Gibco, Cat #11039). Following overnight culture, cells were loaded with calcium indicator dye (AAT Bioquest Inc, Cat #34601) for 30 minutes at 37° C. The cells were then equilibrated to room temperature for 30 minutes before the assay. Test compounds solubilized in DMSO were transferred to 384 well non-binding surface plates (Corning, Cat #3575) using the Labcyte Echo acoustic dispense and diluted with assay buffer [1×HBSS with calcium/magnesium (Gibco Cat #14025-092), 20 mM HEPES (Gibco Cat #15630-080) and 0.1% fatty acid free BSA (Sigma Cat #A9205)] to a final concentration of 0.5% DMSO. Diluted compounds were added to the cells by FDSS6000 (Hamamatsu) at final concentrations ranging from 0.08 nM to 5 μM. and were then incubated for 20 min at room temperature at which time LPA (Avanti Polar Lipids Cat #857130C) was added at final concentrations of 10 nM to stimulate the cells. The compound IC50 value was defined as the concentration of test compound which inhibited 50% of the calcium flux induced by LPA alone. IC50 values were determined by fitting data to a 4-parameter logistic equation (GraphPad Prism, San Diego Calif.).
Take `Cc1nc(-c2nnn(C)c2CNc2nccc(Oc3c(F)cc(F)cc3F)n2)ccc1O[C@H]1CCC[C@H](C(=O)O)C1` [Example 100]: the 50% inhibitory concentration (IC50) came to 0.085 µM.
The same measure for `Cc1nc(-c2nnn(C)c2CNc2nccc(Oc3ccc(F)c(F)c3)n2)ccc1O[C@H]1CCC[C@H](C(=O)O)C1` [Example 101]: 0.028 µM.
Then `Cc1nc(-c2nnn(C)c2CNc2nccc(OCCCF)n2)ccc1O[C@H]1CCC[C@H](C(=O)O)C1` [Example 102], with 0.025 µM.
Then `Cc1nc(-c2nnn(C)c2CNc2nccc(Oc3cc(F)ccc3F)n2)ccc1O[C@H]1CCC[C@H](C(=O)O)C1` [Example 103], with 0.033 µM; and `CCCOc1ccnc(NCc2c(-c3ccc(O[C@H]4CCC[C@H](C(=O)O)C4)c(C)n3)nnn2C)n1` [Example 104], with 0.027 µM; and `COc1cccc(Oc2ccnc(NCc3c(-c4ccc(O[C@H]5CCC[C@H](C(=O)O)C5)c(C)n4)nnn3C)n2)c1` [Example 105], with 0.022 µM.
As to `Cc1ccc(Oc2ccnc(NCc3c(-c4ccc(O[C@H]5CCC[C@H](C(=O)O)C5)c(C)n4)nnn3C)n2)cc1` [Example 106], the IC50 was found to be 0.226 µM.
With `COc1ccc(Oc2ccnc(NCc3c(-c4ccc(O[C@H]5CCC[C@H](C(=O)O)C5)c(C)n4)nnn3C)n2)cc1` [Example 107], the IC50 was determined as 0.054 µM.
The same measure for `Cc1cccc(Oc2ccnc(NCc3c(-c4ccc(O[C@H]5CCC[C@H](C(=O)O)C5)c(C)n4)nnn3C)n2)c1` [Example 108]: 0.152 µM.
Then `Cc1nc(-c2nnn(C)c2CNc2nccc(Oc3cccc(F)c3)n2)ccc1O[C@H]1CCC[C@H](C(=O)O)C1` [Example 109], with 0.017 µM; and `Cc1nc(-c2nnn(C)c2CNc2nccc(Oc3ccc(F)cc3)n2)ccc1O[C@H]1CCC[C@H](C(=O)O)C1` [Example 110], with 0.022 µM; and `Cc1nc(-c2nnn(C)c2CNc2nccc(-n3ccccc3=O)n2)ccc1O[C@H]1CCC[C@H](C(=O)O)C1` [Example 111], with 0.763 µM.
Take `Cc1nc(-c2nnn(C)c2CNc2nccc(Oc3ccc(Cl)cc3)n2)ccc1O[C@H]1CCC[C@H](C(=O)O)C1` [Example 112]: the IC50 was determined as 0.045 µM.
Regarding `Cc1nc(-c2nnn(C)c2CNc2nccc(Oc3ccccn3)n2)ccc1O[C@H]1CCC[C@H](C(=O)O)C1` [Example 113], the IC50 is 0.191 µM.
The same measure for `Cc1nc(-c2nnn(C)c2CNc2nccc(Oc3cc(F)cc(F)c3)n2)ccc1O[C@H]1CCC[C@H](C(=O)O)C1` [Example 114]: 0.017 µM.
As for `Cc1nc(-c2nnn(C)c2CNc2nccc(Oc3ccccc3F)n2)ccc1O[C@H]1CCC[C@H](C(=O)O)C1` [Example 115], the concentration for half-maximal inhibition (IC50) came out at 0.025 µM.
Then `Cc1nc(-c2nnn(C)c2CNc2nccc(Oc3ccc(F)cc3F)n2)ccc1O[C@H]1CCC[C@H](C(=O)O)C1` [Example 116], with 0.014 µM.
In the case of `Cc1nc(-c2nnn(C)c2CNc2nccc(OC3CC3)n2)ccc1O[C@H]1CCC[C@H](C(=O)O)C1` [Example 117], the 50% inhibitory concentration (IC50) amounted to 0.032 µM.
As to `Cc1nc(-c2nnn(C)c2CNc2ncccc2OC(C)C)ccc1O[C@H]1CCC[C@H](C(=O)O)C1` [Example 118], the IC50 was determined as 0.448 µM.
The same measure for `Cc1nc(-c2nnn(C)c2CNc2ncccc2OC(F)(F)F)ccc1O[C@H]1CCC[C@H](C(=O)O)C1` [Example 119]: 0.793 µM.
Take `COc1cnc(NCc2c(-c3ccc(O[C@H]4CCC[C@H](C(=O)O)C4)c(C)n3)nnn2C)nc1C(C)(C)C` [Example 120]: the IC50 came out at 0.344 µM.
Regarding `COc1cnc(NCc2c(-c3ccc(O[C@H]4CCC[C@H](C(=O)O)C4)c(C)n3)nnn2C)nc1C1CCC1` [Example 121], the IC50 turned out to be 0.106 µM.
`COC(C)(C)c1ccnc(NCc2c(-c3ccc(O[C@H]4CCC[C@H](C(=O)O)C4)c(C)n3)nnn2C)n1` [Example 122]: the IC50 is 1.13 µM.
The same measure for `Cc1nc(-c2nnn(C)c2CNc2ncc(F)c(-c3ccccc3F)n2)ccc1O[C@H]1CCC[C@H](C(=O)O)C1` [Example 123]: 0.079 µM; for `COCC(C)(C)c1ccnc(NCc2c(-c3ccc(O[C@H]4CCC[C@H](C(=O)O)C4)c(C)n3)nnn2C)n1` [Example 124]: 0.385 µM.
The same measure for `Cc1nc(-c2nnn(C)c2CNc2cc(C(F)(F)F)nc(Cl)n2)ccc1O[C@H]1CCC[C@H](C(=O)O)C1` [Example 125]: 0.167 µM.
Then `Cc1nc(-c2nnn(C)c2CNc2nccc(CC(C)C)n2)ccc1O[C@H]1CCC[C@H](C(=O)O)C1` [Example 126], with 0.022 µM; and `Cc1nc(-c2nnn(C)c2CNc2nccc(C(C)(C)CF)n2)ccc1O[C@H]1CCC[C@H](C(=O)O)C1` [Example 127], with 0.022 µM.
Turning to `Cc1nc(-c2nnn(C)c2CNc2nccc(C(C)(C)CO)n2)ccc1O[C@H]1CCC[C@H](C(=O)O)C1` [Example 128], the IC50 was 0.855 µM.
The same measure for `CCc1cc(CC)nc(NCc2c(-c3ccc(O[C@H]4CCC[C@H](C(=O)O)C4)c(C)n3)nnn2C)n1` [Example 129]: 0.102 µM; for `Cc1nc(-c2nnn(C)c2CNc2nccc(Oc3ccccc3)n2)cnc1O[C@H]1CCC[C@H](C(=O)O)C1` [Example 130]: 0.105 µM.
The same measure for `Cc1nc(-c2nnn(C)c2CNc2nccc(C(C)(C)F)n2)ccc1O[C@H]1CCC[C@H](C(=O)O)C1` [Example 132]: 0.053 µM; for `Cc1nc(-c2nnn(C)c2CNc2nccc(C(C)(F)F)n2)ccc1O[C@H]1CCC[C@H](C(=O)O)C1` [Example 133]: 0.116 µM; for `CCC(F)(F)c1ccnc(NCc2c(-c3ccc(O[C@H]4CCC[C@H](C(=O)O)C4)c(C)n3)nnn2C)n1` [Example 134]: 0.028 µM.
The same measure for `Cc1nc(-c2nnn(C)c2CNc2nccc(C(C)C)n2)cnc1O[C@H]1CCC[C@H](C(=O)O)C1` [Example 135]: 0.296 µM.
In the case of `Cc1nc(-c2nnn(C)c2CNc2nccc(C(C)(C)C)n2)cnc1O[C@H]1CCC[C@H](C(=O)O)C1` [Example 136], the IC50 was 0.086 µM.
As to `Cc1nc(-c2nnn(C)c2CNc2nccc(-c3ccccc3)n2)cnc1O[C@H]1CCC[C@H](C(=O)O)C1` [Example 137], the IC50 stood at 0.056 µM.
Consider `Cc1nc(-c2nnn(C)c2CNc2nccc(-c3ccccc3F)n2)cnc1O[C@H]1CCC[C@H](C(=O)O)C1` [Example 138], for which the IC50 came out at 0.033 µM.
Then `Cn1nnc(-c2ccc(O[C@H]3CCC[C@H](C(=O)O)C3)cn2)c1CNc1nccc(OC2CC2)n1` [Example 139], with 0.042 µM; and `Cn1nnc(-c2ccc(O[C@H]3CCC[C@H](C(=O)O)C3)cn2)c1CNc1ccnc(OC2CC2)n1` [Example 140], with 1.37 µM.
Then `CCOc1ccnc(NCc2c(-c3ccc(O[C@H]4CCC[C@H](C(=O)O)C4)cn3)nnn2C)n1` [Example 141], with 0.022 µM; and `COc1nc(NCc2c(-c3ccc(O[C@H]4CCC[C@H](C(=O)O)C4)c(C)n3)nnn2C)ncc1F` [Example 142], with 0.159 µM; and `Cc1nc(-c2nnn(C)c2CNc2ncc(F)c(-c3ccccc3)n2)ccc1O[C@H]1CCC[C@H](C(=O)O)C1` [Example 143], with 0.026 µM.
The same measure for `Cc1nc(-c2nnn(C)c2CNc2ncc(F)c(C(C)(C)C)n2)ccc1O[C@H]1CCC[C@H](C(=O)O)C1` [Example 144]: 0.04 µM.
As to `Cc1cc(-c2ccccc2C#N)nc(NCc2c(-c3ccc(O[C@H]4CCC[C@H](C(=O)O)C4)c(C)n3)nnn2C)n1` [Example 145], the IC50 was determined as 0.058 µM.
Turning to `Cc1nc(-c2nnn(C)c2CNc2ncc3c(n2)-c2ccccc2OC3)ccc1O[C@H]1CCC[C@H](C(=O)O)C1` [Example 147], the IC50 came to 0.278 µM.
On to `CCC1(c2ccnc(NCc3c(-c4ccc(O[C@H]5CCC[C@H](C(=O)O)C5)c(C)n4)nnn3C)n2)CC1` [Example 148], for which the IC50 was determined as 0.07 µM.
Consider `CCC(C)(C)c1ccnc(NCc2c(-c3ccc(O[C@H]4CCC[C@H](C(=O)O)C4)c(C)n3)nnn2C)n1` [Example 149], for which the IC50 worked out at 0.034 µM.
Then `Cc1nc(-c2nnn(C)c2CNc2cc(C(C)(C)C)ccn2)ccc1O[C@H]1CCC[C@H](C(=O)O)C1` [Example 150], with 0.084 µM.
Then `Cc1nc(-c2nnn(C)c2CNc2nccc(C3(C)CC3)n2)ccc1O[C@H]1CCC[C@H](C(=O)O)C1` [Example 151], with 0.04 µM; and `Cc1nc(-c2nnn(C)c2CNc2cc(Oc3ccccc3)ccn2)ccc1O[C@H]1CCC[C@H](C(=O)O)C1` [Example 152], with 0.067 µM; and `Cc1nc(-c2nnn(C)c2CNc2nccc(C(C)(C)O)n2)ccc1O[C@H]1CCC[C@H](C(=O)O)C1` [Example 153], with 0.704 µM.
On to `Cc1nc(-c2nnn(C)c2CNc2nccc(C3CC3C)n2)ccc1O[C@H]1CCC[C@H](C(=O)O)C1` (some centres unmarked) [Example 154], for which the IC50 was 0.043 µM.
The same measure for `Cc1nc(-c2nnn(C)c2CNc2nccc(C34CC(C3)C4)n2)ccc1O[C@H]1CCC[C@H](C(=O)O)C1` [Example 155]: 0.096 µM.
The same measure for `Cc1nc(-c2nnn(C)c2CNc2nccc(C3CC(F)C3)n2)ccc1O[C@H]1CCC[C@H](C(=O)O)C1` (some centres unmarked) [Example 156]: 0.032 µM; for `Cc1nc(-c2nnn(C)c2CNc2ncc(F)c(C(C)C)n2)ccc1O[C@H]1CCC[C@H](C(=O)O)C1` [Example 157]: 0.04 µM.
